Activity calls are given as the source filed them. No cut-off for these calls is given here.
Experiments:
HCT-116 [1] = test: Induction of cell cycle arrest in human HCT-116 cells assessed as accumulation of cells at S phase at 6 uM incubated for 24 hrs by flow cytometry analysis (reference value: 3.61%); type: functional
HCT-116 [2] = test: Induction of cell cycle arrest in human HCT-116 cells assessed as accumulation of cells at G2/M phase at 1.5 uM incubated for 24 hrs by flow cytometry analysis (reference value: 18.25%); type: functional
HCT-116 [3] = test: Inhibition of cell migration in human HCT-116 cells at 2 uM measured for 24 hrs by scratch wound healing assay; type: functional
HCT-116 [4] = test: Inhibition of cell migration in human HCT-116 cells at 0.5 uM measured for 24 hrs by scratch wound healing assay; type: functional
[5] = Cytotoxicity against HEK293 cells assessed as inhibition of cell growth incubated 1.5 hrs by MTT assay; type: toxicity, cell-based; settings: human
CT26 = test: Growth inhibition of CT26 cells incubated for 1.5 hrs by MTT assay; type: functional, cell-based; settings: Mus musculus, CT26, 1.5 h
HCT-116 [6] = test: Induction of cell cycle arrest in human HCT-116 cells assessed as accumulation of cells at G2 phase at 6 uM incubated for 24 hrs by flow cytometry analysis (reference value: 18.25%); type: functional
HCT-116 [7] = test: Inhibition of colony formation in human HCT-116 cells at 1 uM incubated for 48 hrs by crystal violet staining based analysis; type: functional; settings: HCT-116, 48 h, values are per cent of control
[8] = Potency index, ratio of test compound IC50 to colchicine IC50 for cytotoxicity against human HUVEC cells assessed as inhibition of cell growth incubated 1.5 hrs by MTT assay; type: toxicity, cell-based; settings: read-out: Ratio IC50
hERG (KCNH2) = hERG (KCNH2) (Homo sapiens, UniProt Q12809); test: Inhibition of hERG expressed in CHO cells at 40 uM by automated patch clamp analysis relative to control; type: toxicity, cell-based; settings: CHO cells that express hERG
Sequence of hERG (KCNH2) (Q12809 whole entry): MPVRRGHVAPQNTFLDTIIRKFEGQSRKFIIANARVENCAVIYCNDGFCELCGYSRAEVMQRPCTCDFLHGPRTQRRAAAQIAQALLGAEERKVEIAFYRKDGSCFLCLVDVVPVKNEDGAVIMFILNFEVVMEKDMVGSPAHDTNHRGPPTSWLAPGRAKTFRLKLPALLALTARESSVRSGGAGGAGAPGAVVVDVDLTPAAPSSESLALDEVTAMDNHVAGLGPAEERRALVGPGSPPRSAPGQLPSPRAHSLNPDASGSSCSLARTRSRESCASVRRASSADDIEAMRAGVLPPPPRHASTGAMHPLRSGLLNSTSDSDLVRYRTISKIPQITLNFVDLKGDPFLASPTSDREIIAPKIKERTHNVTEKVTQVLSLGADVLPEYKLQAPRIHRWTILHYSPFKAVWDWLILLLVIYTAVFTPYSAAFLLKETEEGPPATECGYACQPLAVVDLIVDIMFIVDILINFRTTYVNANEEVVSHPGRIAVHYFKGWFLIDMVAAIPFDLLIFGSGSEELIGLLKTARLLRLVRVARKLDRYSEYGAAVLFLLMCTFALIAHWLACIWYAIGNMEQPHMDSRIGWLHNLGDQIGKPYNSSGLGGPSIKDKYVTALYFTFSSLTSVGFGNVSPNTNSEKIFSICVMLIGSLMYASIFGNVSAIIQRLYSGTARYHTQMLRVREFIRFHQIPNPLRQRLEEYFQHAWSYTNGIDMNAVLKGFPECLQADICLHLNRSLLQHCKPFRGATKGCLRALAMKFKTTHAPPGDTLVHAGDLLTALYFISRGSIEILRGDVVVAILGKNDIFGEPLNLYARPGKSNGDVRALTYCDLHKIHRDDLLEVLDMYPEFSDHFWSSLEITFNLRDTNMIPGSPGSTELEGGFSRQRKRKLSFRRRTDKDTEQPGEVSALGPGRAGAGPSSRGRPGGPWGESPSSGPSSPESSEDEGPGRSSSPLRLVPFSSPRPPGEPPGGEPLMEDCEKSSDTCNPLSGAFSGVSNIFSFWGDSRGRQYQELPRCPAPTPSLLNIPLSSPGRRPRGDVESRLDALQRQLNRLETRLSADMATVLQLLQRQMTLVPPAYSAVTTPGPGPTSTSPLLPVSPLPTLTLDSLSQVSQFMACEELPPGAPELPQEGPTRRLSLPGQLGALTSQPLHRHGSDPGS

HCT-116 [9] = test: Induction of apoptosis in human HCT-116 cells assessed as necrotic cells at 1.5 uM incubated for 24 hrs by annexin V-FITC/7-AAD staining based flow cytometry analysis (reference value: 2.46%); type: functional
HCT-116 [10] = test: Inhibition of cell migration in human HCT-116 cells at 1 uM measured for 24 hrs by scratch wound healing assay; type: functional
HCT-116 [11] = test: Induction of apoptosis in human HCT-116 cells assessed as viable cells at 6 uM incubated for 24 hrs by annexin V-FITC/7-AAD staining based flow cytometry analysis (reference value: 90.19%); type: functional; settings: read-out: Activity
HCT-116 [12] = test: Induction of cell cycle arrest in human HCT-116 cells assessed as accumulation of cells at G2/M phase at 6 uM incubated for 24 hrs by flow cytometry analysis (reference value: 18.25%); type: functional
HCT-116 [13] = test: Antiproliferative activity against human HCT-116 cells assessed as inhibition of cell growth at 2 uM incubated for 2 weeks by […]; type: functional, cell-based
HCT-116 [14] = test: Induction of apoptosis in human HCT-116 cells assessed as late apoptotic cells at 6 uM incubated for 24 hrs by annexin V-FITC/7-AAD staining based flow cytometry analysis (reference value: 1.53%); type: functional

IC50 (CT26): 4.11 µM
Structure (SMILES): CCOc1ccc([C@H]2CC(=O)c3cc(OC)c(OC)c(OC)c32)cc1F
Activity (HCT-116 [1]): 5.1%
Activity (HCT-116 [2]): 24.41%
inhibition at 2 µM (HCT-116 [3]): 55%
inhibition at 0.5 µM (HCT-116 [4]): 21%
IC50 at 1.5 h [5]: 7.45 µM
Activity (HCT-116 [6]): 47.34%
growth, % of control at 1 µM (HCT-116 [7]): 1.3%
selectivity ratio at 1.5 h [8]: 35
inhibition at 40 µM (hERG (KCNH2)): 42%
Activity (HCT-116 [9]): 2.28%
inhibition at 1 µM (HCT-116 [10]): 43%
viability at 6 µM (HCT-116 [11]): 60.5%
Activity (HCT-116 [12]): 47.34%
Activity (HCT-116 [13]): Active
Activity (HCT-116 [14]): 13.77%
